Data taken from patent US9090628B2, “Benzoxazepin compounds selective for PI3K P110 delta and methods of use” (GENENTECH, INC., priority 2011, dated 2015).

Experiments:
[1] = biological target: p110 delta (Homo sapiens (Human), UniProt O00329); assay: PI3K isoform inhibition assay, p110 delta (fluorescence polarization displacement); format: biochemical
Procedure: (§1) PI3K enzymatic activity was assayed by measuring the amount of product phosphatidylinositol 3,4,5-phosphate (PIP3) formed from substrate 4,5 phosphatidylinositol 4,5-phosphate (PIP2) using a fluorescence polarization displacement assay. The decrease in fluorescence polarization of a fluorescent PIP3 probe is measured as it is displaced from a PIP3-binding protein GRP-1 detector by PI3K-catalyzed product. […] The kinase reactions were initiated by the addition of 40 ng/mL p110α/p85α, 300 ng/mL p110β/p85α, 40 ng/mL p110γ, or 40 ng/mL p110δ/p85α (Upstate Group, Millipore; Dundee, UK), and 10 μM PIP2 (Echelon Biosciences) to the wells. […] After 60 minutes of incubation at room temperature to allow equilibration of labeled and unlabeled PIP3 binding, the parallel and perpendicular components of the fluorescence emissions from each sample were measured at an excitation wavelength of 530 nm and an emission wavelength of 590 nm using an Envision fluorescent plate reader with a rhodamine filter (PerkinElmer Life and Analytical Sciences; Wellesley, Mass.). The assay is capable of detecting 0.1-2.0 μM PIP3 product. The IC50 values were obtained by fitting the dose-dependent inhibition data to a 4-parameter equation using Assay Explorer software (MDL, San Ramon, Calif.).
The Formula I compound was serially diluted in 100% DMSO. The kinase reaction was incubated for 1 h at room temperature, and the reaction was terminated by the addition of PBS. IC50 values were subsequently determined using sigmoidal dose-response curve fit (variable slope).
(§2) The four Class I PI 3-kinases are cloned into baculovirus vectors as follows: […]

[2] = biological target: p110 alpha (Homo sapiens (Human), UniProt P42336); assay: PI3K isoform inhibition assay, p110 alpha (for alpha/delta selectivity); conditions: ratio of biochemical IC50 values
Procedure: as §1
The same protocol may be used to establish IC50 values for p110α (alpha) PI3K binding.
as §2

Sequence of p110 alpha (P42336 whole entry, canonical isoform): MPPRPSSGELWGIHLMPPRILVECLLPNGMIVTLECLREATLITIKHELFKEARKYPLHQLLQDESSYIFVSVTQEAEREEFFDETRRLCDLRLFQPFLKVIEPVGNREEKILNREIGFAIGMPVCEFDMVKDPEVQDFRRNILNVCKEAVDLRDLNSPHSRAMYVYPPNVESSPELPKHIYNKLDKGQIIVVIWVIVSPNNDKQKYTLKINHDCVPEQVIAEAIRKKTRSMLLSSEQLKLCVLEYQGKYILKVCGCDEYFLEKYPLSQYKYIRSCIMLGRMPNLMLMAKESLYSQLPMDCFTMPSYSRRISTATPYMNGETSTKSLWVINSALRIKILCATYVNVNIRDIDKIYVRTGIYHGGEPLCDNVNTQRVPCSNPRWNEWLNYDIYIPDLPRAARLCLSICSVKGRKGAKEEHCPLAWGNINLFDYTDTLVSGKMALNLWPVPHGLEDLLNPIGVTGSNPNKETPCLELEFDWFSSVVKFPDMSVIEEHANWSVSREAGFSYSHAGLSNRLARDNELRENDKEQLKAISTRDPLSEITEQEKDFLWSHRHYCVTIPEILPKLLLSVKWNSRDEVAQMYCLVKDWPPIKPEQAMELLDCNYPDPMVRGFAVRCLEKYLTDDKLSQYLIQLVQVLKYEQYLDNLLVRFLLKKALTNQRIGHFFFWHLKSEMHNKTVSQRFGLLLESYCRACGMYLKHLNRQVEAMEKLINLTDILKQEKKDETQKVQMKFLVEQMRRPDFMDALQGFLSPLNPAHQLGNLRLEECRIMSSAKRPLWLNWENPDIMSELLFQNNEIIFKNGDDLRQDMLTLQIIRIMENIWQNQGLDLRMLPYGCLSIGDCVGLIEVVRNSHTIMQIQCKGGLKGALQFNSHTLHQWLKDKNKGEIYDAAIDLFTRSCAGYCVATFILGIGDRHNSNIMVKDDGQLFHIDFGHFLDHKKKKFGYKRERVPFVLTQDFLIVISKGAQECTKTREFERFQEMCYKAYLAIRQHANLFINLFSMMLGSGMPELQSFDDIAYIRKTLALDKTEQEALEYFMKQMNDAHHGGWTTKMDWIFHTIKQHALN
Sequence of p110 alpha (P27986 whole entry partner, canonical isoform): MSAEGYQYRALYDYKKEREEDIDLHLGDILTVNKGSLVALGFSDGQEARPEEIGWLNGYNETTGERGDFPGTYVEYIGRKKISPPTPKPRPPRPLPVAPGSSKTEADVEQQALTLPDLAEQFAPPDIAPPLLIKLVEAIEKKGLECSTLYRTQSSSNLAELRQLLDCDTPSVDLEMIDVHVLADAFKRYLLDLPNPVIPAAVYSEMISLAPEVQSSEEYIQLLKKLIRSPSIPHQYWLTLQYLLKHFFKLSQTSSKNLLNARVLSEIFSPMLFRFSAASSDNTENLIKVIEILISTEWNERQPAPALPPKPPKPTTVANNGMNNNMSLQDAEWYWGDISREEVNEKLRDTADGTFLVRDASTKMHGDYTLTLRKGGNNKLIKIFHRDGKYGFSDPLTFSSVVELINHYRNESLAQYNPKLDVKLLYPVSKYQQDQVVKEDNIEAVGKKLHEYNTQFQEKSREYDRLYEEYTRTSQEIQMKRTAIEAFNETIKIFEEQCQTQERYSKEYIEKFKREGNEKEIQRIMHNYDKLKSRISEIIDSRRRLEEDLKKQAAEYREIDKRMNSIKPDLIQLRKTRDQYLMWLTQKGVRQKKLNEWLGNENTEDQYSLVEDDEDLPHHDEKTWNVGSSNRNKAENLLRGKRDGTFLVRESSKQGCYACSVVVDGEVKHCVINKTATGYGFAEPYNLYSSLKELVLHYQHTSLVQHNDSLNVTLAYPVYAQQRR
Sequence of p110 delta (O00329 whole entry, canonical isoform): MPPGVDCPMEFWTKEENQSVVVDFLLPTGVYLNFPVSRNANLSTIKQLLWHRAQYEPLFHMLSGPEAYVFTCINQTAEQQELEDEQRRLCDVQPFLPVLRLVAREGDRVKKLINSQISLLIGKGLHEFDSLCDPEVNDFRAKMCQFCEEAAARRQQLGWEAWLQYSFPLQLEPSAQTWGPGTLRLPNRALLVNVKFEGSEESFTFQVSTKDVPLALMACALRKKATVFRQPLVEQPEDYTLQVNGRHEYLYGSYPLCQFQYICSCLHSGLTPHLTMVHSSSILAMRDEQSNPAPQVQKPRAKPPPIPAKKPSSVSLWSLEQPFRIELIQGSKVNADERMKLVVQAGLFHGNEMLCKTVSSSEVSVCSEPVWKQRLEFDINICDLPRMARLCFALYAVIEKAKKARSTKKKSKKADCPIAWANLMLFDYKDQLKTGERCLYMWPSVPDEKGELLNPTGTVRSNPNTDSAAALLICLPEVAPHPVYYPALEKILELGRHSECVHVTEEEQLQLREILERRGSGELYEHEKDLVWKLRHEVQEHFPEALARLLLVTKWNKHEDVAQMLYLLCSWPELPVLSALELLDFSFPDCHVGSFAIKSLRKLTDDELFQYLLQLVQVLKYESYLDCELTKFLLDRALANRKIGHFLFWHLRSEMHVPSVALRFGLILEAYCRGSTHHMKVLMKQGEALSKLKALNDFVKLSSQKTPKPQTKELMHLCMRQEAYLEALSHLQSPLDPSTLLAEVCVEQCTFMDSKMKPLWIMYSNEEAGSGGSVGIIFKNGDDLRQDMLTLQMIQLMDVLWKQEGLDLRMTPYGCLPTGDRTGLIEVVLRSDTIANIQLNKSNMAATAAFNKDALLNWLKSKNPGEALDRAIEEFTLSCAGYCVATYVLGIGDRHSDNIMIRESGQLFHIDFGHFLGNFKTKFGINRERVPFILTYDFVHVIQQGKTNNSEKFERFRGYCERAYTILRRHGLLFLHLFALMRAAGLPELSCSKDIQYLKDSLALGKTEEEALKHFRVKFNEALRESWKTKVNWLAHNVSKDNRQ
Sequence of p110 delta (P27986 whole entry partner, canonical isoform): as the sequence (P27986 whole entry partner, canonical isoform) above

SMILES	IC50 [1]	IC50 p110 alpha/IC50 p110 delta [2]
CC(C)n1ncnc1-c1cn2c(n1)-c1cnc(N3CCCC3CN3CCCC3)cc1OCC2 (centres unmarked) [Example 105, 2-(1-isopropyl-1H-1,2,4-triazol-5-yl)-9-(2-(pyrrolidin-1-ylmethyl)pyrrolidin-1-yl)-5,6-dihydroimidazo[1,2-d]pyrido[3,4-f][1,4]oxazepine]	0.707 nM	18.3
CC(C)n1ncnc1-c1cn2c(n1)-c1cnc(N3CCCC3C3CCN(C)CC3)cc1OCC2 (centres unmarked) [Example 106, 2-(1-isopropyl-1H-1,2,4-triazol-5-yl)-9-(2-(1-methylpiperidin-4-yl)pyrrolidin-1-yl)-5,6-dihydroimidazo[1,2-d]pyrido[3,4-f][1,4]oxazepine]	0.541 nM	25.7
CC(C)n1ncnc1-c1cn2c(n1)-c1ccc(-c3ccccc3S(N)(=O)=O)cc1OCC2 [Example 109, 2-(2-(1-isopropyl-1H-1,2,4-triazol-5-yl)-5,6-dihydrobenzo[f]imidazo[1,2-d][1,4]oxazepin-9-yl)benzenesulfonamide]	14 nM	17.3
Cc1nc(-c2cn3c(n2)-c2ccc(-c4ncnn4C4CCN(C(C)(C)C)CC4)cc2OCC3)n(C(C)C)n1 [Example 258, 9-(1-(1-tert-butylpiperidin-4-yl)-1H-1,2,4-triazol-5-yl)-2-(1-isopropyl-3-methyl-1H-1,2,4-triazol-5-yl)-5,6-dihydrobenzo[f]imidazo[1,2-d][1,4]oxazepine]	82.1 nM	10.2
Cc1nc(-c2cn3c(n2)-c2ccc(OC4(CN5CCN(C)CC5)CC4)cc2OCC3)n(C(C)C)n1 [Example 259, 2-(1-isopropyl-3-methyl-1H-1,2,4-triazol-5-yl)-9-(1-((4-methylpiperazin-1-yl)methyl)cyclopropoxy)-5,6-dihydrobenzo[f]imidazo[1,2-d][1,4]oxazepine]	3.31 nM	26.1
Cc1nc(-c2cn3c(n2)-c2ccc(OC4CC(C)CN(C(C)C)C4)cc2OCC3)n(C(C)C)n1 (centres unmarked) [Example 260, 2-(1-isopropyl-3-methyl-1H-1,2,4-triazol-5-yl)-9-(1-isopropyl-5-methylpiperidin-3-yloxy)-5,6-dihydrobenzo[f]imidazo[1,2-d][1,4]oxazepine]	2.56 nM	12.8
Cc1nc(-c2cn3c(n2)-c2ccc(OC4(C)CCN(C(C)C)C4)cc2OCC3)n(C(C)C)n1 (centres unmarked) [Example 261, 2-(1-isopropyl-3-methyl-1H-1,2,4-triazol-5-yl)-9-(1-isopropyl-3-methylpyrrolidin-3-yloxy)-5,6-dihydrobenzo[f]imidazo[1,2-d][1,4]oxazepine]	0.638 nM	14.4
Cc1nc(-c2cn3c(n2)-c2ccc(-c4ccnn4C4CCCN(Cc5ccccc5)C4)cc2OCC3)n(C(C)C)n1 (centres unmarked) [Example 262, 9-(1-(1-benzylpiperidin-3-yl)-1H-pyrazol-5-yl)-2-(1-isopropyl-3-methyl-1H-1,2,4-triazol-5-yl)-5,6-dihydrobenzo[f]imidazo[1,2-d][1,4]oxazepine]	8.53 nM	21.8
Cc1cc2c(cc1-c1ccnn1C1CCN(C)CC1)OCCn1cc(-c3ncnn3C(C)C)nc1-2 [Example 264, 2-(1-isopropyl-1H-1,2,4-triazol-5-yl)-10-methyl-9-(1-(1-methylpiperidin-4-yl)-1H-pyrazol-5-yl)-5,6-dihydrobenzo[f]imidazo[1,2-d][1,4]oxazepine]	17.3 nM	10
Cc1nc(-c2cn3c(n2)-c2ccc(-c4ccnn4C4CCN(C(C)(C)C)CC4)cc2OCC3)n(C(C)C)n1 [Example 269, 9-[2-(1-tert-butyl-4-piperidyl)pyrazol-3-yl]-2-(2-isopropyl-5-methyl-1,2,4-triazol-3-yl)-5,6-dihydroimidazo[1,2-d][1,4]benzoxazepine]	4.57 nM	9.8
CC(C)n1ncnc1-c1cn2c(n1)-c1cc([S+]([O-])C3CCN(C(C)(C)C)CC3)ccc1OCC2 (centres unmarked) [Example 270, 10-(1-tert-butylpiperidin-4-ylsulfinyl)-2-(1-isopropyl-1H-1,2,4-triazol-5-yl)-5,6-dihydrobenzo[f]imidazo[1,2-d][1,4]oxazepine]	0.811 nM	184
Cc1nc(-c2cn3c(n2)-c2ccc(OC4(C)CNC4)cc2OCC3)n(C(C)C)n1 [Example 271, 2-(2-isopropyl-5-methyl-1,2,4-triazol-3-yl)-9-(3-methylazetidin-3-yl)oxy-5,6-dihydroimidazo[1,2-d][1,4]benzoxazepine]	0.633 nM	9.8
Cc1nc(-c2cn3c(n2)-c2ccc(N4CCCC4C4CCN(CC(C)(C)O)CC4)cc2OCC3)n(C(C)C)n1 (centres unmarked) [Example 272, 1-[4-[1-[2-(2-isopropyl-5-methyl-1,2,4-triazol-3-yl)-5,6-dihydroimidazo[1,2-d][1,4]benzoxazepin-9-yl]pyrrolidin-2-yl]-1-piperidyl]-2-methyl-propan-2-ol]	0.986 nM	49.9
Cc1nc(-c2cn3c(n2)-c2cc(C(=O)N4CCN(C(C)(C)C)CC4)c(F)cc2OCC3)n(C(C)C)n1 [Example 273, (4-tert-butylpiperazin-1-yl)-[9-fluoro-2-(2-isopropyl-5-methyl-1,2,4-triazol-3-yl)-5,6-dihydroimidazo[1,2-d][1,4]benzoxazepin-10-yl]methanone]	2.73 nM	69.9
Cc1nc(-c2cn3c(n2)-c2ccc(N4CCCC4C4CCN(CC(C)(C)O)CC4)cc2OCC3)n(C(C)C)n1 (centres unmarked) [Example 274, 1-[4-[1-[2-(2-isopropyl-5-methyl-1,2,4-triazol-3-yl)-5,6-dihydroimidazo[1,2-d][1,4]benzoxazepin-9-yl]pyrrolidin-2-yl]-1-piperidyl]-2-methyl-propan-2-ol]	2.2 nM	34
Cc1nc(-c2cn3c(n2)-c2ccc(OC4(c5ccccc5)CN(C(C)C)C4)cc2OCC3)n(C(C)C)n1 [Example 275, 2-(2-isopropyl-5-methyl-1,2,4-triazol-3-yl)-9-(1-isopropyl-3-phenyl-azetidin-3-yl)oxy-5,6-dihydroimidazo[1,2-d][1,4]benzoxazepine]	6.2 nM	17
Cc1nc(-c2cn3c(n2)-c2cc(C(O)C4CCN(C)CC4)ccc2OCC3)n(C(C)C)n1 (centres unmarked) [Example 276, [2-(2-isopropyl-5-methyl-1,2,4-triazol-3-yl)-5,6-dihydroimidazo[1,2-d][1,4]benzoxazepin-10-yl]-(1-methyl-4-piperidyl)methanol]	17.9 nM	10.8
Cc1nc(-c2cn3c(n2)-c2ccc(-c4cnn(C(C)C)c4CN4CCN(C(C)(C)C)CC4)cc2OCC3)n(C(C)C)n1 [Example 277, 9-[5-[(4-tert-butylpiperazin-1-yl)methyl]-1-isopropyl-pyrazol-4-yl]-2-(2-isopropyl-5-methyl-1,2,4-triazol-3-yl)-5,6-dihydroimidazo[1,2-d][1,4]benzoxazepine]	4 nM	27.8
Cc1nc(-c2cn3c(n2)-c2ccc(-c4cnn(C(C)C)c4CN4CCN(C)CC4)cc2OCC3)n(C(C)C)n1 [Example 278, 9-[1-isopropyl-5-[(4-methylpiperazin-1-yl)methyl]pyrazol-4-yl]-2-(2-isopropyl-5-methyl-1,2,4-triazol-3-yl)-5,6-dihydroimidazo[1,2-d][1,4]benzoxazepine]	3.34 nM	33.4
Cc1nc(-c2cn3c(n2)-c2ccc(-c4cn(C)nc4C4CCCN(C(C)C)C4)cc2OCC3)n(C(C)C)n1 (centres unmarked) [Example 280, 2-(2-isopropyl-5-methyl-1,2,4-triazol-3-yl)-9-[3-(1-isopropyl-3-piperidyl)-1-methyl-pyrazol-4-yl]-5,6-dihydroimidazo[1,2-d][1,4]benzoxazepine]	0.878 nM	32.7
Cc1nc(-c2cn3c(n2)-c2cc(C(=O)N4CCN(C(C)(C)CO)CC4)c(F)cc2OCC3)n(C(C)C)n1 [Example 281, [9-fluoro-2-(2-isopropyl-5-methyl-1,2,4-triazol-3-yl)-5,6-dihydroimidazo[1,2-d][1,4]benzoxazepin-10-yl]-[4-(2-hydroxy-1,1-dimethyl-ethyl)piperazin-1-yl]methanone]	5.63 nM	30.6
Cc1nc(-c2cn3c(n2)-c2ccc(-c4ccnn4C4CC(C)N(C)C(C)C4)cc2OCC3)n(C(C)C)n1 (centres unmarked) [Example 282, 2-(2-isopropyl-5-methyl-1,2,4-triazol-3-yl)-9-[2-(1,2,6-trimethyl-4-piperidyl)pyrazol-3-yl]-5,6-dihydroimidazo[1,2-d][1,4]benzoxazepine]	1.3 nM	76.9
